Assays:
Test in all cases: relative viability vs DMSO control (72 h) (fraction); higher = more viable cells
SW684 = test system: SW684
Outline: (§1)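 Sarcoma cell lines were seeded in 384-well plates at densities set to reach 80–90% confluence. After 24 h, 2.5 µl of serially diluted compound was added (source plates 10 mM to 0.0002 mM), and plates were held 72 h at 37 °C, 5% CO2, with 0.1% DMSO vehicle and a 5 µM positive control. Relative viability came from ATPLite readings as percent growth, averaged over up to triplicate wells. Data were rescaled so full viability equals 1 and none equals 0.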

A204 = test system: A204
Outline: as §1

SK-ES-1 = test system: SK-ES-1
Outline: as §1

G401 = test system: G401
Outline: as §1

SK-LMS-1 = test system: SK-LMS-1
Outline: as §1

HS729 = test system: HS729
Outline: as §1

SW872 = test system: SW872
Outline: as §1

MES-SA = test system: MES-SA
Outline: as §1

SYO-1 = test system: SYO-1
Outline: as §1

SW1353 = test system: SW1353
Outline: as §1

SW982 = test system: SW982
Outline: as §1

KHOS-240S = test system: KHOS-240S
Outline: as §1

COc1cc(Nc2c(C#N)cnc3cc(OCCCN4CCN(C)CC4)c(OC)cc23)c(Cl)cc1Cl [Bosutinib]
Settings	relative viability
A204, 0.00017 µM	1.09
A204, 0.00051 µM	1.12
A204, 0.00152 µM	1.09
A204, 0.00457 µM	1.13
A204, 0.01372 µM	1.17
A204, 0.04115 µM	1.21
A204, 0.1235 µM	1.23
A204, 0.3704 µM	1.21
A204, 1.111 µM	1.111
A204, 3.333 µM	0.807
A204, 10 µM	0.259
G401, 0.00017 µM	1.09
G401, 0.00051 µM	1.09
G401, 0.00152 µM	1.08
G401, 0.00457 µM	1.06
G401, 0.01372 µM	1.09
G401, 0.04115 µM	1.09
G401, 0.1235 µM	1.08
G401, 0.3704 µM	1.08
G401, 1.111 µM	1.03
G401, 3.333 µM	0.909
G401, 10 µM	0.0203
HS729, 0.00017 µM	1.06
HS729, 0.00051 µM	1.04
HS729, 0.00152 µM	1.1
HS729, 0.00457 µM	1.05
HS729, 0.01372 µM	1.07
HS729, 0.04115 µM	1.05
HS729, 0.1235 µM	0.978
HS729, 0.3704 µM	0.922
HS729, 1.111 µM	0.773
HS729, 3.333 µM	0.79
HS729, 10 µM	0.107
KHOS-240S, 0.00017 µM	1.07
KHOS-240S, 0.00051 µM	1.08
KHOS-240S, 0.00152 µM	1.08
KHOS-240S, 0.00457 µM	1.1
KHOS-240S, 0.01372 µM	1.08
KHOS-240S, 0.04115 µM	1.06
KHOS-240S, 0.1235 µM	1.04
KHOS-240S, 0.3704 µM	0.962
KHOS-240S, 1.111 µM	0.734
KHOS-240S, 3.333 µM	0.49
KHOS-240S, 10 µM	0.0326
MES-SA, 0.00017 µM	1.018
MES-SA, 0.00051 µM	0.992
MES-SA, 0.00152 µM	1.01
MES-SA, 0.00457 µM	0.979
MES-SA, 0.01372 µM	0.989
MES-SA, 0.04115 µM	0.993
MES-SA, 0.1235 µM	0.994
MES-SA, 0.3704 µM	0.926
MES-SA, 1.111 µM	0.675
MES-SA, 3.333 µM	0.432
MES-SA, 10 µM	0.228
SK-ES-1, 0.00017 µM	1.05
SK-ES-1, 0.00051 µM	1.06
SK-ES-1, 0.00152 µM	1.06
SK-ES-1, 0.00457 µM	1.07
SK-ES-1, 0.01372 µM	1
SK-ES-1, 0.04115 µM	1.02
SK-ES-1, 0.1235 µM	0.935
SK-ES-1, 0.3704 µM	0.732
SK-ES-1, 1.111 µM	0.482
SK-ES-1, 3.333 µM	0.303
SK-ES-1, 10 µM	0.136
SK-LMS-1, 0.00017 µM	1.06
SK-LMS-1, 0.00051 µM	1.07
SK-LMS-1, 0.00152 µM	1.08
SK-LMS-1, 0.00457 µM	1.07
SK-LMS-1, 0.01372 µM	1.1
SK-LMS-1, 0.04115 µM	1.16
SK-LMS-1, 0.1235 µM	1.22
SK-LMS-1, 0.3704 µM	1.24
SK-LMS-1, 1.111 µM	1.1
SK-LMS-1, 3.333 µM	0.873
SK-LMS-1, 10 µM	0.0696
SW684, 0.00017 µM	1.24
SW684, 0.00051 µM	1.25
SW684, 0.00152 µM	1.306
SW684, 0.00457 µM	1.27
SW684, 0.01372 µM	1.25
SW684, 0.04115 µM	1.28
SW684, 0.1235 µM	1.33
SW684, 0.3704 µM	1.31
SW684, 1.111 µM	1.05
SW684, 3.333 µM	0.6
SW684, 10 µM	0.101
SW872, 0.00017 µM	1.1
SW872, 0.00051 µM	1.131
SW872, 0.00152 µM	1.12
SW872, 0.00457 µM	1.12
SW872, 0.01372 µM	1.12
SW872, 0.04115 µM	1.123
SW872, 0.1235 µM	1.085
SW872, 0.3704 µM	0.984
SW872, 1.111 µM	0.727
SW872, 3.333 µM	0.555
SW872, 10 µM	0.0547
SW982, 0.00017 µM	1.05
SW982, 0.00051 µM	1.08
SW982, 0.00152 µM	1.08
SW982, 0.00457 µM	1.08
SW982, 0.01372 µM	1.09
SW982, 0.04115 µM	1.08
SW982, 0.1235 µM	1.05
SW982, 0.3704 µM	0.816
SW982, 1.111 µM	0.511
SW982, 3.333 µM	0.359
SW982, 10 µM	0.0126
SW1353, 0.00017 µM	1.11
SW1353, 0.00051 µM	1.11
SW1353, 0.00152 µM	1.12
SW1353, 0.00457 µM	1.09
SW1353, 0.01372 µM	1.1
SW1353, 0.04115 µM	1.13
SW1353, 0.1235 µM	1.09
SW1353, 0.3704 µM	1.04
SW1353, 1.111 µM	0.896
SW1353, 3.333 µM	0.673
SW1353, 10 µM	0.0287
SYO-1, 0.00017 µM	1.04
SYO-1, 0.00051 µM	1.03
SYO-1, 0.00152 µM	1.02
SYO-1, 0.00457 µM	1.04
SYO-1, 0.01372 µM	1.01
SYO-1, 0.04115 µM	0.989
SYO-1, 0.1235 µM	0.966
SYO-1, 0.3704 µM	0.966
SYO-1, 1.111 µM	0.868
SYO-1, 3.333 µM	0.641
SYO-1, 10 µM	-0.0056

Reference: the supplement of paper PMC10883282
